Assay results published in US20260374750A1, “LIGANDS SPECIFICALLY TARGETING VESICULAR GLUTAMATE TRANSPORTERS FOR SUPER-RESOLUTION IMAGING” (SORBONNE UNIVERSITÉ, priority 2021, published 2026).

How the values were obtained:
[1] = tested on: VGLUTs (GLU vesicular transport); assay: Vesicular glutamate reuptake test ([3H]-glutamate, synaptic vesicles); format: biochemical, rat; settings: for potency in words (EC50): based on EC50; for EC50: vesicular glutamate transport
Procedure: The EC50 was also determined for several of the compounds of the invention.
The vesicular glutamate reuptake was tested as previously described (Kish and Ueda, 1989; Naito and Ueda, 1985; Pietrancosta et al., 2010) with minor modifications. Aliquots of synaptic vesicles […] (obtained by differential centrifugation of rat cortex) were diluted in a solution containing 4 mM HEPES-KOH, pH 7.4 and 0.32M sucrose. The tested compounds were dissolved in 1% ethanol, 1% DMSO (pH was adjusted to 7.4 with 5% KOH) to initial concentrations comprised between 2 mM and 200 μM. The compounds were then diluted to desired final concentrations in a solution containing 10 mM HEPES-KOH, pH 7.4, 0.32 M sucrose, 4 mM KCl, 4 mM MgSO4 (named TPU). The tested compounds were pre-incubated in a solution containing 3 mM ATP-Mg, 1 mM L-aspartic acid, 100 μM glutamate and 0.4 mM […] and 0.4 μM [3H]-Glutamate (1.547 TBq/mmol). After 4 min at 37 °C, the reuptake reaction was initiated by the addition of rat synaptic vesicles. This mixture was incubated for 10 min at 37 °C before adding ice-cold TPU (3.5 mL) and rapidly filtering it through a membrane filter ([…], Millipore MF reference HAWP02500) using a vacuum collector. The filters were washed five times with 3.5 mL of cold TPU and placed in scintillation vials with a scintillation cocktail (optiphase hisafe 3, reference 1200-437, Perkin Elmer). The radioactivity related to the filters was measured in a Beckman LS 6500 scintillation spectrophotometer. The values obtained in the absence of ATP-Mg or in the presence of Carbonyl [COMPOUND LEFT OUT] 3-chlorophenylhydrazone (CCCP, 50 μM reference Sigma C2759) were used to determine the non-specific activity.

[2] = Fluorimetry: absorption and emission spectra, Stokes shift, molar absorption coefficient, quantum efficiency; format: physicochemical; design: λmax abs / λmax em: unit not given here; key to Stokes shift: λmaxem − λmaxabs (emission peak minus absorption peak); settings: for Stokes shift: λmaxem-λmaxabs; for ε (molar absorption coefficient) / φ (quantum efficiency): coumarin-343 as reference
Procedure: The physicochemical properties of each ligand were determined thanks to fluorimetry. For each compound, a dilution range was performed and measurements were taken at 1 mM, 316 μM, 100 μM, 31.6 μM, 10 μM, 3.16 μM and 1μ. In 96-well fluorescence microplates, the absorbance and emission spectra of the ligands could be determined at each concentration thanks to a plate spectrophotometer (Tecan). The absorbance spectra are first measured for each compound so as to determine the maximum absorption wavelength (λmaxabs). The fluorescence, or emission, spectra are then determined after excitation of each compound at its λmaxabs, thus allowing obtaining the maximum fluorescence wavelength (λmaxem). Different parameters specific to each of the compounds were determined: • The Stokes shift: it corresponds to the difference between the peak of the absorption spectrum and the peak of the fluorescence spectrum, i.e.: λmaxem-λmaxabs • The molar absorption coefficient (ε): it reflects the capacity of the solutions to absorb light and is determined by the formula ε=A/(C.I)(A: optical density at λmaxabs, C: concentration of the compound, I: constant corresponding to the length of the optical path). ε is expressed in L·cm^−1·mol^−1. • The quantum efficiency (Φ): it represents the ratio of the number of photons emitted to the number of photons absorbed by the compound, i.e. the “probability” for an excited molecule to emit a photon. It takes a value between 0 and 1, 0 corresponding to a non-fluorescent molecule and 1 meaning that there is no de-excitation. Its value is determined thanks to the following formula where Abs: optical density at λmaxabs, AUC: area under the curve of the fluorescence spectrum, n: refractive index of the medium. In this formula, “m” refers to the studied molecule, and “r” to a reference fluorophore.
[formula] • of the fluorescence spectrum, n: refractive index of the medium). In this formula, “m” refers to the studied molecule, and “r” to a reference fluorophore.
The determination of ε and Φ requires the use of a reference fluorescent molecule for which these two parameters are known. Because of its coumarin-type fluorescent pattern, therefore close to those of the studied compounds, coumarin-343 (ε=44300 L·cm−1·mol−1 and Φ=0.63 in ethanol) was used as reference fluorophore. These two parameters were recalculated in the compound dilution medium (DMSO), and were used as a reference in the calculation of ε and Φ for each ligand.
In order to study the effect of a pH variation on the fluorescence intensity of the compounds, the measurements of the absorption and emission spectra were carried out in three different dilution media: • DMSO: pure dimethyl sulfoxide • Phosphate buffer pH 7.2 (0.2 M) • Phosphate buffer pH 5.5 (0.2 M)
FIG. 1 illustrates the absorption and emission spectra of the compound referenced L8, a carboxylic acid from the quinoline family. This is an example of the study carried out on each of the studied fluorophores. The graphic values determined thanks to these spectra are the λmaxabs, the λmaxem and the Stokes shift in each medium. […] The most diluted wells are preferred to see the emission peak of the compound.
The results which are obtained graphically thanks to the excitation and emission spectra and by calculation via the properties of coumarin 343 are grouped in Table 2 below.

[3] = pH 7 (phosphate buffer pH 7.2, 0.2 M)
[4] = phosphate buffer pH 5.5 (0.2 M)

Structure (SMILES): Nc1ccc(-c2ccc(C#Cc3cc4cc(C(=O)O)c(=O)oc4cc3O)cc2)cc1 [LSP17-1173, 6-((4′-amino-[1,1′-biphenyl]-4-yl)ethynyl)-7-hydroxy-2-oxo-2H-chromene-3-carboxylic Acid]
- % inhibition of GLU vesicular transport at 20 μM ([1]; coumarin-derived compounds): 100%
- potency in words (EC50) [1]: effective at a very low concentration
- EC50 ([1]; coumarin-derived compounds): 500 nM
- λmax em ([2]; DMSO): 460
- Stokes shift ([2]; DMSO): 125
- ε (molar absorption coefficient) ([2]; DMSO): 51857.8 L/cm/mol
- φ (quantum efficiency) ([2]; DMSO): 0.06
- Stokes shift ([2]; pH 5.5): 47
- λmax abs [2, 3]: 360
- Stokes shift ([2]; pH 7): 80
- λmax abs [2, 4]: 365
- λmax em [2, 4]: 412

Structure (SMILES): CCOC(=O)c1cc2cc(C#Cc3ccc(-c4ccc(N)cc4)cc3)c(O)cc2oc1=O [F11, Ethyl-6-((4′-amino-[1,1′-biphenyl]-4-yl)ethynyl)-7-hydroxy-2-oxo-2H-chromene-3-carboxylate]
- λmax em ([2]; DMSO): 500-620
- Stokes shift ([2]; DMSO): 160
- ε (molar absorption coefficient) ([2]; DMSO): 62227.6 L/cm/mol
- φ (quantum efficiency) ([2]; DMSO): 0.18
- Stokes shift ([2]; pH 5.5): 45
- λmax abs [2, 3]: 365
- λmax em [2, 3]: 425
- Stokes shift ([2]; pH 7): 60
- λmax abs [2, 4]: 365
- λmax em [2, 4]: 410

Structure (SMILES): Nc1ccc(-c2ccc(-c3cn(-c4ccc5oc(=O)c(C(=O)O)cc5c4)nn3)cc2)cc1 [LSP17-1115, 6-(4-(4′-amino-[1,1′-biphenyl]-4-yl)-1H-1,2,3-triazol-1-yl)-2-oxo-2H-chromene-3-carboxylic Acid]
- % inhibition of GLU vesicular transport at 20 μM ([1]; coumarin-derived compounds): 6%
- λmax abs ([2]; DMSO): 325
- λmax em ([2]; DMSO): 410
- Stokes shift ([2]; DMSO): 85
- ε (molar absorption coefficient) ([2]; DMSO): 36944.8 L/cm/mol
- φ (quantum efficiency) ([2]; DMSO): 0.06
- Stokes shift ([2]; pH 5.5): 43
- λmax abs [2, 3]: 365
- λmax em [2, 3]: 415
- Stokes shift ([2]; pH 7): 50
- λmax abs [2, 4]: 365
- λmax em [2, 4]: 408

Structure (SMILES): O=C(O)c1cc(C(=O)O)c2cc(-c3ccc(-c4ccccc4)cc3)ccc2n1 [LSP13-1152-YL152 (L8), 6-(Biphenyl-4-yl) quinoline-2,4-dicarboxylic Acid]
- % inhibition of GLU vesicular transport at 20 μM ([1]; quinoline-derived compounds): 49%
- EC50 ([1]; quinoline-derived compounds): 22000 nM
- λmax abs ([2]; DMSO): 355
- λmax em ([2]; DMSO): 415
- Stokes shift ([2]; DMSO): 60
- fluorescence intensity of emission spectra ([2]; FIG. 1): very significant fluorescence intensities
- ε (molar absorption coefficient) ([2]; DMSO): 35280.3 L/cm/mol
- φ (quantum efficiency) ([2]; DMSO): 0.32
- Stokes shift ([2]; pH 5.5): 80
- λmax abs [2, 3]: 330
- Stokes shift ([2]; pH 7): 80
- λmax abs [2, 4]: 330
- λmax em [2, 4]: 410

Structure (SMILES): COc1cc2oc(=O)c(C(=O)O)cc2cc1-n1cc(-c2ccc(-c3ccc(N)cc3)cc2)nn1 [LSP17-1124, 6-(4-(4′-amino-[1,1′-biphenyl]-4-yl)-1H-1,2,3-triazol-1-yl)-7-methoxy-2-oxo-2H-chromene-3-carboxylic Acid]
- % inhibition of GLU vesicular transport at 20 μM ([1]; coumarin-derived compounds): 100%
- potency in words (EC50) [1]: effective at a very low concentration
- EC50 ([1]; coumarin-derived compounds): 400 nM
- λmax abs ([2]; DMSO): 330
- λmax em ([2]; DMSO): 405-511
- Stokes shift ([2]; DMSO): 75
- ε (molar absorption coefficient) ([2]; DMSO): 21908.6 L/cm/mol
- φ (quantum efficiency) ([2]; DMSO): 0.14
- Stokes shift ([2]; pH 5.5): 45
- λmax abs [2, 3]: 365
- λmax em [2, 3]: 416
- Stokes shift ([2]; pH 7): 51
- λmax abs [2, 4]: 335
- λmax em [2, 4]: 380
